According to article PMC10987501, “The antihyperglycemic potential of pyrazolobenzothiazine 1, 1-dioxide novel derivative in mice using integrated molecular pharmacological approach” (Scientific Reports, 2024):
“Also recorded” adds a separate entry of the source.

What was measured:
α-amylase [1] = assay: α-amylase inhibition assay (starch substrate, DNSA); format: biochemical
Experimental: ELISA plate was used for inhibition assay and it was loaded with 40 µL of the sample. Enzyme prepared in 0.02 M sodium phosphate buffer with pH 6.9 (40 µL) was further added to wells. The solution in wells was kept on incubation at 37 °C for 10 min. Moreover, 40 µL starch solution prepared in 1% DMSO was added to the solution and put on incubation for 10 min at 25 °C. At last, to stop the reaction, 100 µL of DNSA reagent was added to the solution. The mixture was put in a boiling water bath for 5 min and cooled down at room temperature after incubation. For dilution of the reaction mixture, 400 µL of distilled water was added to the solution, and the absorbance of the reaction mixture was measured at 540 nm wavelength. To calculate the percentage inhibition the following formula was used. Inhibition%=B-S/B∗100
(§1) At this point, the B and S denote absorbance for the blank and samples. Blank contains only DMSO instead of sample.

α-glucosidase [2] = assay: Kinetics study (α-glucosidase), Lineweaver–Burk plot; format: biochemical
Experimental: (p-nitrophenyl-α-D-glucoside) was used for reaction. In addition, varying concentrations (0.1 mM, 0.25 mM, 0.5 mM, 0.75 mM, 1 mM) sample/inhibitor [V] was used. The type of inhibition was determined by the Lineweaver–Burk plot, while the Michaelis Menten equation was used to find the value of the inhibition constant. Vo=VmaxS/Km+S 1/Vo=Km+S/VmaxS=km/Vmax1/S+1/Vmax
(§2) The initial rate of reaction is indicated by V0, Michaelis Menten's constant signifies km, Km/Vmax represents to slope, and 1/Vmax denotes the y-intercept. The value of the inhibitory constant was calculated by plotting the secondary graph. Straight-line produced by slope versus [V] intersecting x-axis indicates ki value while ki′ was produced by intersecting line plotted between y-intercept and [V].

α-glucosidase [3] = assay: α-glucosidase inhibition assay (PNPG substrate); format: biochemical; details: for α-glucosidase % inhibition: 10 μL (500 µM) sample
Experimental: To carry out this reaction, 10 μL (500 µM) of 10 mM sample solution (prepared in DMSO) was added to ELISA 96 microwell plate. Then, 40 μL of 0.5U/ml α glucosidase was mixed by adding 120 μL of 0.1M phosphate buffer with a pH value of 7.4. The solution was incubated at 37 °C for 5 min. The reaction proceeded further by adding 40 μL of 5 mM substrate solution (PNPG) and incubation was done for half an hour at 37 °C. After performing the incubation microplate reader was used to read the absorbance of the reaction mixture at 405 nm wavelength. […] The inhibition percentage of the sample and positive control were calculated using the following formula. Inhibition%=B-S/B∗100
as §1

α-amylase [4] = assay: Kinetics study (α-amylase), Lineweaver–Burk plot; format: biochemical
Experimental: Varying concentrations (0.25%, 0.5%, 1%, 1.5%, 2%) of substrate [S] (starch) were used with constant enzyme concentration. Same as substrate, varying concentration (1 mM, 3 mM, 5 mM, 7 mM, 9 mM) of the inhibitor [V] was used. Lineweaver–Burk plots were used to determine the type of enzyme inhibition and the Michaelis Menten equation was used to find the value of inhibition constant. Vo=VmaxS/Km+S 1/Vo=Km+S/VmaxS=km/Vmax1/S+1/Vmax
as §2, with “initial reaction” for “initial”, “rate” for “rate of reaction”, “represents” for “represents to”

BALB/c mice [5] = assay: Histology of liver, kidney and pancreas and side effects in alloxan-induced diabetic mice; format: in vivo
Experimental: All experimental protocols adhered to the guidelines outlined in the NIH Guide for Care and Use of Laboratory Animals and the ARRIVE guidelines for animal experimentation. The Animal Care and Use Committee (ACUC) of Government College University Faisalabad (GCUF-2021-09) provided approval for the study. For in vivo study, BALB/c mice (weight 26–33 g) were acquired from the Department of Pharmacy and kept in the optimized environment (12 h dark, 12 h light) with a regular pellet diet and normal tab water. Diabetes induction in mice was done through a standard protocol reported by[21] with slight amendments. Alloxan monohydrate 150 mg/kg (following the body weight of mice) was liquified in normal saline and injected intraperitoneally in mice fasted for 16 h[22],[23]. Furthermore, screening of mice was done based on their blood glucose levels and mice with blood glucose levels more than 1.26 g/L were considered diabetic, and therefore taken for further experiment/examination. The mice diagnosed with diabetes were classified into five groups and five mice in each group. […] Two doses were selected because they indicate how the organism's response changes at different levels of exposure. This information is crucial for determining safe dosage levels for humans or animals. […]

BALB/c mice [6] = assay: Biochemical investigation of blood in alloxan-induced diabetic mice; format: in vivo; set-up: Serum insulin level: unit not given here; details: for Serum insulin level: normal mice about 15 µM/L; for Serum creatinine / Cholesterol in blood / HbA1c, % of glycated haemoglobin: treated group; for Serum creatinine: diabetic control 1.9 mg/dL; for Cholesterol in blood: diabetic control 120 mg/dL; for HbA1c, % of glycated haemoglobin: diabetic control 9%
Experimental: All experimental protocols adhered to the guidelines outlined in the NIH Guide for Care and Use of Laboratory Animals and the ARRIVE guidelines for animal experimentation. The Animal Care and Use Committee (ACUC) of Government College University Faisalabad (GCUF-2021-09) provided approval for the study. For in vivo study, BALB/c mice (weight 26–33 g) were acquired from the Department of Pharmacy and kept in the optimized environment (12 h dark, 12 h light) with a regular pellet diet and normal tab water. Diabetes induction in mice was done through a standard protocol reported by[21] with slight amendments. Alloxan monohydrate 150 mg/kg (following the body weight of mice) was liquified in normal saline and injected intraperitoneally in mice fasted for 16 h[22],[23]. Furthermore, screening of mice was done based on their blood glucose levels and mice with blood glucose levels more than 1.26 g/L were considered diabetic, and therefore taken for further experiment/examination. The mice diagnosed with diabetes were classified into five groups and five mice in each group. […] Two doses were selected because they indicate how the organism's response changes at different levels of exposure. This information is crucial for determining safe dosage levels for humans or animals.
For biochemical testing and histological examination, mice from each group were collected, and data were produced for different testing parameters, including fasting blood glucose, serum creatinine, serum insulin, HbA1c, triglyceride and cholesterol. A Countour TS glucometer was used to measure mice's fasting blood glucose levels. While Clinical Chemistry Reagents SRL (CCR) kit was used to measure serum creatinine and triglyceride levels. Moreover, the VITRO SCIENT kit was utilized to measure the serum insulin, cholesterol and HbA1c levels. For histological analysis, mice were sacrificed and their organs (liver, kidney and pancreas) were washed with cold saline and preserved in a 10% formalin solution. A compound microscope from the Department of Physiology, Government College University Faisalabad, was used for tissue investigation under a controlled and organized environment. Pictures of tissue samples were taken through OPTIKA software.

## C/C(=N\NC(=O)C1=C(O)c2ccccc2S(=O)(=O)N1)c1ccccc1 [Compound S1, (E)-4-Hydroxy-N′-(1-phenylethylamine)-2H-benzo[e][1,2]thiazine-3-carbohydrazide1,1-dioxide]
α-amylase [1]
  IC50: 8.89 µM
  α-amylase % inhibition: 46 ± 0.091%
α-glucosidase [2]
  Type of inhibition, α-glucosidase: competitive type of inhibition; also recorded: competitively
α-glucosidase [3]
  IC50: 3.91 µM
α-glucosidase [3]; 500 µM
  α-glucosidase % inhibition: 55 ± 0.047%
α-amylase [4]
  Type of inhibition, α-amylase: competitive type of inhibition; also recorded: competitively
BALB/c mice [5]; after administration to mice
  Side effects in the mice model: no significant side effect
BALB/c mice [5]; diabetic mice dissected after 21 days of treatment
  Histology: necrosis / toxicity in liver, kidney and pancreas: low necrosis rate; also recorded: less toxic in the kidney, liver, and pancreas; also recorded: no toxicity within the liver and pancreatic tissues; also recorded: minimum rate of necrosis and toxicity
BALB/c mice [6]; double dose (7.8 mg/kg)
  Serum insulin level: 30
BALB/c mice [6]; single and double doses (3.9 and 7.8 mg/kg), diabetic control > 300 mg/dL
  Fasting blood sugar level: 110 mg/dL
BALB/c mice [6]; single dose (3.9 mg/kg)
  Serum insulin level: 25
BALB/c mice [6]
  Serum creatinine: 0.6 mg/dL
  Cholesterol in blood: 85 mg/dL
  HbA1c, % of glycated haemoglobin: 3%

## C[C@H]1O[C@H](O[C@H]2[C@H](O)[C@@H](O)[C@@H](O[C@H]3[C@H](O)[C@@H](O)C(O)O[C@@H]3CO)O[C@@H]2CO)[C@H](O)[C@@H](O)[C@@H]1N[C@H]1C=C(CO)[C@@H](O)[C@H](O)[C@H]1O (some centres unmarked) [Acarbose, reference compound]
α-amylase [1]
  α-amylase % inhibition: 33 ± 0.042%
α-glucosidase [2]
  Type of inhibition, α-glucosidase: competitive inhibition
α-glucosidase [3]
  α-glucosidase % inhibition: 37 ± 0.026%
BALB/c mice [6]
  Serum creatinine: 0.8 mg/dL
  Cholesterol in blood: 100 mg/dL
  HbA1c, % of glycated haemoglobin: 5%
